Reference: patent publication US20050043247A1, “Spray-dried amorphous BIBN 4096, process for preparing and the use thereof as inhalative” (Boehringer Ingelheim International GmbH, priority 2003, published 2005)

Columns and labels:
[1] = Bioavailability after administration by inhalation as powder inhalant; settings: in vivo, inhaled or intranasal; administered by inhalation as powder inhalant; based on the fine content of the formulation (FPD, fine particle dose, USP 24 Suppl. 2000)
[2] = Determining the particle size by laser diffraction (Frauenhofer diffraction); type: physicochemical
Source text: a) Determining the Particle Size by Laser Diffraction (Frauenhofer Diffraction):
Measuring method: In order to determine the particle size the powder is fed into a laser diffraction spectrometer using a dispersing unit. The median value X50 refers to the particle size below which 50% of the quantity of particles fall. The Q(5.8) value describes the percentage of particles which are less than 5.8 μm in size.
Measuring device: Laser diffraction spectrometer (HELOS), Messrs. Sympatec
Dispersing unit: RODOS/dispersing pressure: 3 bar
Focal length: 100 mm [measuring range: 0.9 . . . 175 μm]
Evaluation method: HRLD (V 4)

[3] = Stability of the amorphous state; type: physicochemical; settings: normal conditions (T<50° C., relative humidity<75%); microparticles
[4] = conventional formulations; cited from earlier work
[5] = Determining the specific surface area (multi point BET, nitrogen); type: physicochemical; settings: spray-dried microparticles from ethanol solution; 16 point BET
Method: b) Determining the Specific Surface Area:
Measuring method: The specific surface is determined by exposing the powder sample to a nitrogen atmosphere at different pressures. Cooling the sample causes the nitrogen molecules to be condensed on the surface of the particles. The quantity of condensed nitrogen is determined by means of the drop in pressure in the system and the surface of the sample is calculated by means of the surface nitrogen requirement and the weight of the sample.
Measuring device: Tri Star Multi Point BET, Messrs. Micromeritics
Heating station: VacPrep 061, Messrs. Micromeritics
Heating: approx. 12 h /40° C.

SMILES: NCCCC[C@H](NC(=O)[C@@H](Cc1cc(Br)c(O)c(Br)c1)NC(=O)N1CCC(N2Cc3ccccc3NC2=O)CC1)C(=O)N1CCN(c2ccncc2)CC1 [A, 1-[N^2-[3,5-dibromo-N-[[4-(3,4-dihydro-2(1H)-oxoquinazolin-3-yl)-1-piperidinyl]carbonyl]-D-tyrosyl]-L-lysyl]-4-(4-pyridinyl)-piperazine]
- bioavailability [1]: ~60%
- Particle size X50 ([2]; spray-dried microparticles from 0.5 g (A) in 100 mL ethanol, median particle size, RODOS dispersing pressure 3 bar): 1.2 μm
- Particle size Q(5.8) ([2]; spray-dried microparticles from ethanol solution, percentage of particles less than 5.8 μm in size): 99.5%
- stability in the amorphous state [3]: stable in the amorphous state
- oral bioavailability [4]: very limited oral bioavailability
- Specific surface area Sm [5]: 21.5 m^2/g
